Test results published in patent US10487093B2, “Heterocyclic compounds, in particular 2-oxo-4,4,5,5,6,6,7,7-octahydrobenzoxazole derivatives, and their use as antibacterial compounds” (priority 2016, dated 2019).
In brackets after ≈: the same amount, converted by molar mass.

Tests used:
E. coli NCTC 13476 = test: MIC, broth microdilution (CLSI) versus planktonic bacteria; type: cell-based; conditions: NCTC13476; Escherichia coli NCTC 13476; 16-20 h; mode of three independent experiments; read-out: MIC, Ec NCTC 13476
[1] = test system: human hepatic cell line (HepG2 ATCC HB-8065); test: Human cell viability assay (CellTiter-Glo); conditions: Homo sapiens, HepG2, 24 h, read-out: IC50 (μg/mL) HepG2
[2] = test system: Staphylococcus aureus ATCC 29213; test: MIC, broth microdilution (CLSI) versus planktonic bacteria; type: cell-based; conditions: ATCC29213; Staphylococcus aureus ATCC 29213; 16-20 h; mode of three independent experiments; read-out: MIC, Sa ATCC 29213
[3] = test system: Escherichia coli ATCC 25922; test: as above; type: cell-based; conditions: ATCC25922; Escherichia coli ATCC 25922; 16-20 h; mode of three independent experiments; read-out: MIC, Ec ATCC 25922
E. coli ATCC BAA-2452 = test: as above; type: cell-based; conditions: Escherichia coli ATCC BAA-2452; 16-20 h; mode of three independent experiments; read-out: MIC, Ec ATCC BAA 2452
[4] = test system: Acinetobacter baumannii NCTC 13420; test: as above; type: cell-based; conditions: NCTC13420; Acinetobacter baumannii NCTC 13420; 16-20 h; mode of three independent experiments; read-out: MIC, Ab NCTC 13420
E. coli MG1655 S83L = type: cell-based, Escherichia coli; conditions: compared to the isogenic parent strain E. coli MG1655; S83L mutation on DNA gyrase subunit GyrA
[5] = test system: Streptococcus pneumoniae ATCC 49619; test: MIC, broth microdilution (CLSI) versus planktonic bacteria; type: cell-based; conditions: ATCC49619; Streptococcus pneumoniae ATCC 49619; 16-20 h; mode of three independent experiments; read-out: MIC, Sp ATCC 49619
E. coli MG1655 D87G = type: cell-based, Escherichia coli; conditions: compared to the isogenic parent strain E. coli MG1655; D87G mutation on DNA gyrase subunit GyrA
[6] = test system: Enterobacter cloacae NCTC 13406; test: MIC, broth microdilution (CLSI) versus planktonic bacteria; type: cell-based; conditions: NCTC13406; Enterobacter cloacae NCTC 13406; 16-20 h; mode of three independent experiments; read-out: MIC, Ecl NCTC 13406
E. coli MG1655 = test: as above; type: cell-based, Escherichia coli; conditions: Escherichia coli, MG1655, read-out: MIC, Ec MG1655 WT
[7] = test system: Acinetobacter baumannii ATCC 19606; test: as above; type: cell-based; conditions: ATCC19606; Acinetobacter baumannii ATCC 19606; 16-20 h; mode of three independent experiments; read-out: MIC, Ab ATCC 19606
[8] = test system: Haemophilus influenzae ATCC 49247; test: as above; type: cell-based; conditions: ATCC49247; Haemophilus influenzae ATCC 49247; 16-20 h; mode of three independent experiments; read-out: MIC, Hi ATCC 49247
[9] = test system: Enterococcus faecalis ATCC 29212; test: as above; type: cell-based; conditions: ATCC29212, 16-20 h, mode of three independent experiments, read-out: MIC, Ef ATCC 29212
[10] = test system: Pseudomonas aeruginosa ATCC 27853; test: as above; type: cell-based; conditions: ATCC27853; Pseudomonas aeruginosa ATCC 27853; 16-20 h; mode of three independent experiments; read-out: MIC, Pa ATCC 27853
[11] = test system: Enterococcus faecium ATCC 19434; test: as above; type: cell-based; conditions: ATCC19434, 16-20 h, mode of three independent experiments, read-out: MIC, Efm ATCC 19434

Row | Structure (SMILES) | MIC (E. coli NCTC 13476) | IC50 [1] | MIC [2] | MIC [3] | MIC (E. coli ATCC BAA-2452) | MIC [4] | Fold increase in MIC, E. coli MG1655 S83L (E. coli MG1655 S83L) | MIC [5] | Fold increase in MIC, E. coli MG1655 D87G (E. coli MG1655 D87G) | MIC [6] | MIC (E. coli MG1655) | MIC [7] | MIC [8] | MIC [9] | MIC [10] | MIC [11]
1 | N#Cc1ccc2ccc(=O)n(CCCN[C@H]3CC[C@H]4[C@H](C3)OC(=O)N4c3ccc4c(n3)NC(=O)CO4)c2c1 [Compound 60, 1-(3-{[(3aS,6S,7aS)-2-oxo-3-{3-oxo-2H,3H,4H-pyrido[3,2-b][1,4]oxazin-6-yl}-octahydro-1,3-benzoxazol-6-yl]amino}propyl)-2-oxo-1,2-dihydroquinoline-7-carbonitrile] | < 1 µg/mL | 10 to 100 µg/mL (≈ 19.4 to 194 µM) | < 1 µg/mL | < 1 µg/mL | < 1 µg/mL | < 1 µg/mL | 4 fold | < 1 µg/mL | 2 fold | < 1 µg/mL | < 1 µg/mL | < 1 µg/mL | < 1 µg/mL | < 1 µg/mL | < 1 µg/mL | 
2 | COc1cnc2ccc(=O)n(CCN[C@H]3CC[C@H]4[C@H](C3)OC(=O)N4c3ccc4c(n3)NC(=O)CO4)c2n1 [Compound 63, (3aS,6S,7aS)-6-[(2-{3-methoxy-6-oxo-5H,6H-pyrido[2,3-b]pyrazin-5-yl}ethyl)amino]-3-{3-oxo-2H,3H,4H-pyrido[3,2-b][1,4]oxazin-6-yl}-octahydro-1,3-benzoxazol-2-one] | < 1 µg/mL | > 100 µg/mL | < 1 µg/mL | < 1 µg/mL | < 1 µg/mL | < 1 µg/mL | 1 fold | < 1 µg/mL | 1 fold | < 1 µg/mL | < 1 µg/mL | < 1 µg/mL | < 1 µg/mL | < 1 µg/mL | < 1 µg/mL | 
3 | N#Cc1cnc2ccc(=O)n(CCN[C@H]3CC[C@H]4[C@H](C3)OC(=O)N4c3ccc4c(n3)NC(=O)CS4)c2c1 [Compound 77, 5-(2-{[(3aS,6S,7aS)-2-oxo-3-{3-oxo-2H,3H,4H-pyrido[3,2-b][1,4]thiazin-6-yl}-octahydro-1,3-benzoxazol-6-yl]amino}ethyl)-6-oxo-5,6-dihydro-1,5-naphthyridine-3-carbonitrile] | < 1 µg/mL | > 100 µg/mL | < 1 µg/mL | < 1 µg/mL | < 1 µg/mL | < 1 µg/mL | 1 fold | < 1 µg/mL | 1 fold | < 1 µg/mL | < 1 µg/mL | < 1 µg/mL | < 1 µg/mL |  | 1 to 10 µg/mL (≈ 1.93 to 19.3 µM) | < 1 µg/mL
4 | COc1cnc2ccc(=O)n(CCN[C@@H]3CC[C@@H]4[C@@H](C3)OC(=O)N4c3ccc4c(n3)NC(=O)CO4)c2n1 [Compound 87, (3aR,6R,7aR)-6-[(2-{3-methoxy-6-oxo-5H,6H-pyrido[2,3-b]pyrazin-5-yl}ethyl)amino]-3-{3-oxo-2H,3H,4H-pyrido[3,2-b][1,4]oxazin-6-yl}-octahydro-1,3-benzoxazol-2-one] | < 1 µg/mL | 10 to 100 µg/mL (≈ 19.7 to 197 µM) | < 1 µg/mL | < 1 µg/mL | < 1 µg/mL | < 1 µg/mL | 2 fold | < 1 µg/mL | 2 fold | < 1 µg/mL | < 1 µg/mL | < 1 µg/mL | < 1 µg/mL | < 1 µg/mL | < 1 µg/mL | 1 to 10 µg/mL (≈ 1.97 to 19.7 µM)
